This passage reports IC50, Activity and viability results from ChEMBL document CHEMBL3774313, “Natural product-based design, synthesis and biological evaluation of Albiziabioside A derivatives that selectively induce HCT116 cell death” (Eur J Med Chem, 2016).

The nature of assay [1]: Cytotoxicity against mouse J774A1 cells assessed as cell viability after 72 hrs by MTT assay. In kind it is functional, cell-based. Particulars: J774.A1, 72 h.
Assay [2] in a line: Cell cycle arrest in human HCT116 cells assessed as accumulation at G1 phase at 4 uM after 72 hrs by Propidium iodide staining-based flow cytometric analysis (reference value: 57.02 %). In kind it is functional. Particulars: HCT-116. (In flow cytometry, cells or beads pass a laser one at a time.)
A short description of assay [3]: Cell cycle arrest in human HCT116 cells assessed as accumulation at S phase at 8 uM after 72 hrs by Propidium iodide staining-based flow cytometric analysis (reference value: 37.29 %). Format: functional. As to conditions: HCT-116.
Assay [4] is described as follows: Antiproliferative activity against human HL60 cells assessed as cell viability after 72 hrs by MTT assay. As to conditions: HL-60, 72 h. Format: functional, cell-based. In general terms: Tetrazolium assays rely on reduction of a dye to a coloured formazan, in cell work by metabolically active cells.
The subject of assay [5] is HCT-116. Nature of the assay: Induction of apoptosis in human HCT116 cells assessed as early apoptotic cells at 2 uM after 72 hrs by Annexin V/Propidium iodide staining based flow cytometric analysis (reference value: 5.07 %). Format: functional.
The subject of assay [6] is HCT-116. Nature of the assay: Induction of apoptosis in human HCT116 cells assessed as necrotic cells at 8 uM after 72 hrs by Annexin V/Propidium iodide staining based flow cytometric analysis (reference value: 0.97 %). In kind it is functional.
For assay [7], the system named is HepG2. Nature of the assay: Antiproliferative activity against human HepG2 cells assessed as cell viability after 72 hrs by MTT assay. Format: functional, cell-based. Particulars: HepG2, 72 h.
In assay [8] the test system is HCT-116. Put plainly: Induction of apoptosis in human HCT116 cells assessed as late apoptotic cells at 4 uM after 72 hrs by Annexin V/Propidium iodide staining based flow cytometric analysis (reference value: 1.49 %). Format: functional.
Assay [9] concerns HCT-116. Put plainly: Induction of apoptosis in human HCT116 cells assessed as mitochondrial membrane potential at 4 uM after 72 hrs by JC-1 staining based flow cytometric analysis (reference value: 98.02 %). Format: functional.
Assay [10] is described as follows: Cell cycle arrest in human HCT116 cells assessed as accumulation at G2 phase at 4 uM after 72 hrs by Propidium iodide staining-based flow cytometric analysis (reference value: 5.69 %). In kind it is functional. As to conditions: HCT-116.
In assay [11] the test system is HCT-116. Put plainly: Induction of apoptosis in human HCT116 cells assessed as viable cells at 4 uM after 72 hrs by Annexin V/Propidium iodide staining based flow cytometric analysis (reference value: 92.47 %). In kind it is functional. Particulars: HCT-116, 72 h, read-out: Activity.
Assay [12] deals with HCT-116. Put plainly: Induction of apoptosis in human HCT116 cells assessed as necrotic cells at 4 uM after 72 hrs by Annexin V/Propidium iodide staining based flow cytometric analysis (reference value: 0.97 %). Format: functional.
The test system of assay [13] is HaCaT. Nature of the assay: Cytotoxicity against human HaCaT cells assessed as cell viability after 72 hrs by MTT assay. Format: cell-based.
The nature of assay [14]: Antiproliferative activity against human HCT116 cells assessed as cell viability after 72 hrs by MTT assay. In kind it is functional, cell-based. As to conditions: HCT-116, 72 h.
Assay [15] relates to HCT-116. Put plainly: Induction of apoptosis in human HCT116 cells assessed as mitochondrial membrane potential at 8 uM after 72 hrs by JC-1 staining based flow cytometric analysis (reference value: 98.02 %). Format: functional.
A short description of assay [16]: Cell cycle arrest in human HCT116 cells assessed as accumulation at S phase at 2 uM after 72 hrs by Propidium iodide staining-based flow cytometric analysis (reference value: 37.29 %). Format: functional. Particulars: HCT-116.
For assay [17], the system named is HCT-116. Nature of the assay: Induction of apoptosis in human HCT116 cells assessed as viable cells at 8 uM after 72 hrs by Annexin V/Propidium iodide staining based flow cytometric analysis (reference value: 92.47 %). In kind it is functional. As to conditions: HCT-116, 72 h, read-out: Activity.
Assay [18] is described as follows: Cytotoxicity against human HBMEC cells assessed as cell viability after 72 hrs by MTT assay. Format: cell-based.
For assay [19], the system named is HCT-116. Put plainly: Induction of apoptosis in human HCT116 cells assessed as mitochondrial membrane potential at 2 uM after 72 hrs by JC-1 staining based flow cytometric analysis (reference value: 98.02 %). In kind it is functional.
Assay [20] is described as follows: Cell cycle arrest in human HCT116 cells assessed as accumulation at G2 phase at 2 uM after 72 hrs by Propidium iodide staining-based flow cytometric analysis (reference value: 5.69 %). Format: functional. Particulars: HCT-116.
In assay [21] the test system is HCT-116. Put plainly: Induction of apoptosis in human HCT116 cells assessed as late apoptotic cells at 8 uM after 72 hrs by Annexin V/Propidium iodide staining based flow cytometric analysis (reference value: 1.49 %). Format: functional.
The subject of assay [22] is HCT-116. Nature of the assay: Induction of apoptosis in human HCT116 cells assessed as early apoptotic cells at 8 uM after 72 hrs by Annexin V/Propidium iodide staining based flow cytometric analysis (reference value: 5.07 %). Format: functional.
For assay [23], the system named is MCF7. Put plainly: Antiproliferative activity against human MCF7 cells assessed as cell viability after 72 hrs by MTT assay. Format: functional, cell-based. As to conditions: MCF7, 72 h.
Assay [24] deals with HCT-116. Nature of the assay: Induction of apoptosis in human HCT116 cells assessed as viable cells at 2 uM after 72 hrs by Annexin V/Propidium iodide staining based flow cytometric analysis (reference value: 92.47 %). As to conditions: HCT-116, 72 h, read-out: Activity. In kind it is functional.
For assay [25], the system named is HCT-116. Put plainly: Induction of apoptosis in human HCT116 cells assessed as necrotic cells at 2 uM after 72 hrs by Annexin V/Propidium iodide staining based flow cytometric analysis (reference value: 0.97 %). In kind it is functional.
A short description of assay [26]: Cell cycle arrest in human HCT116 cells assessed as accumulation at G2 phase at 8 uM after 72 hrs by Propidium iodide staining-based flow cytometric analysis (reference value: 5.69 %). Format: functional. Particulars: HCT-116.
Assay [27] has as its system HCT-116. Put plainly: Induction of apoptosis in human HCT116 cells assessed as late apoptotic cells at 2 uM after 72 hrs by Annexin V/Propidium iodide staining based flow cytometric analysis (reference value: 1.49 %). In kind it is functional.
In assay [28] the test system is HeLa. Put plainly: Antiproliferative activity against human HeLa cells assessed as cell viability after 72 hrs by MTT assay. Format: functional, cell-based.
Assay [29] in a line: Cytotoxicity against human CCD-841-CoN cells assessed as cell viability after 72 hrs by MTT assay. In kind it is cell-based.
Assay [30] relates to HCT-116. Put plainly: Induction of apoptosis in human HCT116 cells assessed as decrease in mitochondrial membrane potential after 72 hrs by JC-1 staining based flow cytometric analysis. Format: functional, cell-based.
The subject of assay [31] is HCT-116. Nature of the assay: Induction of apoptosis in human HCT116 cells assessed as early apoptotic cells at 4 uM after 72 hrs by Annexin V/Propidium iodide staining based flow cytometric analysis (reference value: 5.07 %). Format: functional.
Assay [32] is described as follows: Cell cycle arrest in human HCT116 cells assessed as accumulation at S phase at 4 uM after 72 hrs by Propidium iodide staining-based flow cytometric analysis (reference value: 37.29 %). As to conditions: HCT-116. Format: functional.
The test system of assay [33] is A549. Nature of the assay: Antiproliferative activity against human A549 cells assessed as cell viability after 72 hrs by MTT assay. In kind it is functional, cell-based. Particulars: A549, 72 h.
Assay [34] in a line: Cell cycle arrest in human HCT116 cells assessed as accumulation at G1 phase at 2 uM after 72 hrs by Propidium iodide staining-based flow cytometric analysis (reference value: 57.02 %). As to conditions: HCT-116. Format: functional.
Assay [35] in a line: Cell cycle arrest in human HCT116 cells assessed as accumulation at G1 phase at 8 uM after 72 hrs by Propidium iodide staining-based flow cytometric analysis (reference value: 57.02 %). In kind it is functional. As to conditions: HCT-116.
Assay [36] in a line: Cytotoxicity against human BEAS2B cells assessed as cell viability after 72 hrs by MTT assay. Format: cell-based. As to conditions: BEAS-2B.
A short description of assay [37]: Cytotoxicity against human LO2 cells assessed as cell viability after 72 hrs by MTT assay. Format: cell-based. Particulars: L02, 72 h.

Consider `CC(=O)N[C@H]1[C@H](O[C@H]2CC[C@]3(C)[C@H]4CC=C5[C@@H]6CC(C)(C)CC[C@]6(C(=O)O)CC[C@@]5(C)[C@]4(C)CC[C@H]3C2(C)C)O[C@H](CO)[C@@H](O)[C@@H]1O[C@@H]1O[C@H](CO)[C@H](O)[C@H](O)[C@H]1O` [LOTOIDOSIDE E], for which the concentration for half-maximal inhibition (IC50) (commonly the concentration that gives 50% inhibition) in assay [1] was 0.018 µM.
As to `CC(C)c1ccc(/C=C/C(=O)N[C@H]2[C@H](O[C@H]3CC[C@]4(C)[C@H]5CC=C6[C@@H]7CC(C)(C)CC[C@]7(C(=O)O)CC[C@@]6(C)[C@]5(C)CC[C@H]4C3(C)C)O[C@H](CO[C@@H]3OC[C@H](O)[C@H](O)[C@H]3O)[C@@H](O)[C@@H]2O)cc1`, the Activity in [2] turned out to be 46.5%; in [3], 42.8%; in assay [5], 4.51%; in assay [6] it was 3.9%; in assay [8], 28%; in assay [9], 73.55%. In addition, the Activity in assay [10] stood at 11.4%; in [12], 3.34%; in [15], 47.79%; in assay [16] it was 36.4%; in [19], 86.87%; in [20], 9.86%. In addition, the Activity in assay [21] was 27%; in [22] it was 40.8%; in assay [25], 1.67%; in [26], 16.5%; in assay [27], 12.21%; in assay [30], “Dose-dependent effect”. Further, the Activity in [31] was determined as 5.4%; in [32] it was 42.1%; in assay [34], 53.8%; in [35], 40.8%. In addition, the IC50 was greater than 50 µM in assay [4]; greater than 50 µM in assay [7]; greater than 50 µM in assay [13]; 7.6 µM in assay [14]; greater than 50 µM in [18]; greater than 50 µM in assay [23]. Further, the IC50 in assay [28], in assay [29], in assay [33], in assay [36] and in assay [37] was greater than 50 µM in each case. Moreover, in assay [11], the viability at 4 µM was found to be 63.3%. Moreover, the viability at 8 µM in assay [17] was determined as 28.3%. Further, the viability at 2 µM in [24] turned out to be 81.6%.
Take `CC(=O)N[C@H]1[C@H](O[C@H]2CC[C@]3(C)[C@H]4CC=C5[C@@H]6CC(C)(C)CC[C@]6(C(=O)O)CC[C@@]5(C)[C@]4(C)CC[C@H]3C2(C)C)O[C@H](CO)[C@@H](O[C@@H]2O[C@H](CO)[C@@H](O)[C@H](O)[C@H]2O)[C@@H]1O[C@H]1O[C@@H](CO)[C@@H](O)[C@@H](O)[C@@H]1O`: the IC50 in assay [1] was determined as 0.15 µM.
